Earlier results on one compound are cited in publication PMC13363528, “Structure–Activity Relationships of Pyrrolyl-Containing Diketo Acid and Non-Diketo Acid Derivatives as Inhibitors of SARS-CoV-2 nsp13-Associated Activities” (Molecules, 2026).

The term IC50 denotes the concentration at which inhibition is half-maximal.

For this data set, the target named is SARS-CoV-2 nsp13 (Severe acute respiratory syndrome coronavirus 2, UniProt P0DTD1). To be noted: without BSA/TCEP; read-out: IC50 Unwinding.

Take `O=c1c(O)c(-c2ccc(O)cc2)oc2cc(O)cc(O)c12` [Kaempferol]: the IC50 was 760 ± 160 nM.
